Consider nine compounds from patent publication US5866574A, “Pancreatitis remedy” (Kyowa Hakko Kogyo Co., Ltd., priority 1997, dated 1999).

Counter-ions that a name gives are not always drawn.

The test system of series [1] is murine cerulein pancreatitis. Nature of the series: effects on murine cerulein pancreatitis (serum amylase, lipase, GPT). It is filed as in vivo, murine (female BALB/C mice). The following applies: mean±SEM. The protocol:
Test of the effects on murine cerulein pancreatitis
Experiment was conducted in accordance with the method described in Digestive Diseases and Science, 37, 274-279 (1992). Female BALB/C mice weighing 17 to 24 g were fasted for 16 hours. Water was provided ad libitum. Acute pancreatitis was induced by the administration of seven intraperitoueally injections of cerulein (50 μg/kg) at hourly intervals. Blood was drawn from abdominal vein, 3, 6, and 9 hours after the first injection of cerulein in case of Compound 1, Compound 2 and compound 3, while in case of Compound 4, blood was drawn therefrom 7 hours after the first injection of cerulein. Blood samples were centrifuged at 4° C. and 3,000 rpm for 10 minutes, and serum was separated. Serum amylase (Amy), lipase (Lip), and glutamic pyruvic transaminase (GPT) activities were measured. For Compound 1, Compound 2 and Compound 3, serum Amy was assayed with AU500/550 specific reagent "Katayama" Amy test(Katayama Chemical Industry Co., Ltd.); for Compound 4, serum Amy was assayed with "Rikitech P-AMY EPS" of BM pancreas-related reagent series (Boehringer Mannheim K. K.). Serum GPT was assayed with "Katayama" GPT test (Katayama Chemical Industry, Co., Ltd.). Serum Lip was assayed with an auto-analyzer reagent "Kyowa" Determiner Lipase (Kyowa Medex, Co., Ltd.). Compound 1, Compound 2, and Compound 3 were suspended in 0.5% methyl cellulose, and […] before the first injection of cerulein, the resulting suspension was orally given at a dose of 10 ml/kg. The solvent (0.5% methyl cellulose) was similarly given to a control group. Compound 4 was dissolved in distilled water, which was adjusted to pH 2 with 0.1N HCl, and then the resulting solution was adjusted to pH 4.5 with 0.1N sodium hydroxide. Compound 4 was orally administered one hour before the first injection of cerulein. The solvent (distilled water for injections, after adjustment to pH 4.5 with 0.1N HCl) was similarly given to a control group.
Results are expressed as means±SEM where appropriate. Difference between normal group and control group were evaluated using the Wilcoxon's rank sum test. And for differences between control group and test compound-treated group, the Steel's test was used for Compound 1 and the Wilcoxon's rank sum test was used for Compounds 2, Compound 3 and Compound 4.
The effects of Compound 1, Compound 2 and Compound 3 on serum Amy, serum Lip and serum GPT are shown in Tables 2, 3 and 4; and the effect of Compound 4 are shown in Table 5.

For a further series, the system named is dd-strain male mice. The series is described as follows: Acute Toxicity Test. Conditions: mortality seven days after administration. The class given is in vivo. An excerpt: Test compounds were orally or intraperitoneally administered to groups of dd-strain male mice weighing 20±1 g, each group consisting of three mice.
Another series has as its system adenosine uptake. Conditions: Nucleosides & Nucleotides, 10, 975-982 (1991); cited from earlier work.
[2] abbreviates: 10 mg/kg oral, 3 h after the first injection of cerulein.
[3] abbreviates: 10 mg/kg oral, 6 h after the first injection of cerulein.
[4] abbreviates: 10 mg/kg oral, 9 h after the first injection of cerulein.
[5] abbreviates: 30 mg/kg oral, 3 h after the first injection of cerulein.
Setting [6] is: 30 mg/kg oral, 6 h after the first injection of cerulein.
[7] abbreviates: 30 mg/kg oral, 9 h after the first injection of cerulein.
[8] abbreviates: 300 mg/kg oral, 3 h after the first injection of cerulein.
Setting [9] is: 300 mg/kg oral, 6 h after the first injection of cerulein.
[10] abbreviates: 300 mg/kg oral, 9 h after the first injection of cerulein.
[11] abbreviates: 10 mg/kg oral, 7 hours after the first injection of cerulein.

In the case of `CCOc1cc2nc(N3CCOCC3)nc(N3CCC(n4c(=O)c5cc(C)ccc5n(C)c4=O)CC3)c2cc1OCC` [Compound 1, 3-[1-(6,7-Diethoxy-2-morpholino-4-quinazolynyl)-4-piperidinyl]-1,2,3,4-tetrahydro-1,6-dimethyl-2,4-dioxoquinazoline hydrochloride salt], the “Serum GPT” value in series [1] (setting [2]) is on record as 37 ± 3 IU/L; in series [1] (setting [3]) it was 50 ± 3 IU/L; in series [1] (setting [4]), 76 ± 5 IU/L; in series [1] (setting [5]), 32 ± 3 IU/L; in series [1] (setting [6]) it was 51 ± 6 IU/L; in series [1] (setting [7]), 52 ± 5 IU/L. The Serum amylase is listed as 4283 ± 245 IU/L in series [1] (setting [2]); 4967 ± 167 IU/L in series [1] (setting [3]); 14817 ± 1459 IU/L in series [1] (setting [4]); 4133 ± 264 IU/L in series [1] (setting [5]); 5200 ± 274 IU/L in series [1] (setting [6]); 5658 ± 682 IU/L in series [1] (setting [7]). For the same compound, the Serum lipase came out at 55 ± 3 IU/L in series [1] (setting [2]); 91 ± 22 IU/L in series [1] (setting [3]); 466 ± 74 IU/L in series [1] (setting [4]); 58 ± 5 IU/L in series [1] (setting [5]); 81 ± 8 IU/L in series [1] (setting [6]); 95 ± 15 IU/L in series [1] (setting [7]). The “minimum lethal dose (MLD)” value in the series with dd-strain male mice (intraperitoneal dosing) was “greater than 100 mg/kg”; in the series on dd-strain male mice (oral dosing), “greater than 1000 mg/kg”.

As for `NC(=O)C1CN(CCCCC(c2ccc(F)cc2)c2ccc(F)cc2)CCN1CC(=O)Nc1c(Cl)cc(N)cc1Cl` (stereo not drawn) [Compound 2, 2-Aminocarbonyl-N-(4-amino-2,6-dichlorophenyl)-4-[5,5-bis(4-fluorophenyl)pentyl]-1-piperazine acetamide], the “Serum GPT” value in series [1] (setting [8]) is listed as 55 ± 2 IU/L; in series [1] (setting [9]) it was 59 ± 6 IU/L; in series [1] (setting [10]) it was 129 ± 23 IU/L. Moreover, the Serum amylase in series [1] (setting [8]) turned out to be 4967 ± 291 IU/L; in series [1] (setting [9]) it was 4417 ± 305 IU/L; in series [1] (setting [10]), 9517 ± 23 IU/L. The Serum lipase in series [1] (setting [8]) amounted to 238 ± 9 IU/L; in series [1] (setting [9]), 217 ± 51 IU/L; in series [1] (setting [10]), 726 ± 23 IU/L. Moreover, the entries for the “minimum lethal dose (MLD)” value in the series with dd-strain male mice (intraperitoneal dosing) and in the series on dd-strain male mice (oral dosing) were “greater than 100 mg/kg” and “greater than 300 mg/kg”, respectively.

On to `NC(=O)C1CN(Cc2nc(-c3ccccc3)c(-c3ccccc3)o2)CCN1CC(=O)Nc1c(Cl)cc([N+](=O)[O-])cc1Cl` (stereo not drawn) [Compound 3, 2-Aminocarbonyl-N-(2,6-dichloro-4-nitrophenyl)-4-[(4,5-diphenyl-2-oxazolyl)methyl]-1-piperazine acetamide . dihydrochloride salt], for which, in series [1] (setting [5]), the “Serum GPT” value is 64 ± 11 IU/L, the Serum amylase turned out to be 4050 ± 309 IU/L and the Serum lipase is recorded as 243 ± 40 IU/L. Moreover, in series [1] (setting [6]), the “Serum GPT” value came to 40 ± 1 IU/L, the Serum amylase was 3733 ± 149 IU/L and the Serum lipase worked out at 135 ± 6 IU/L. Further, in series [1] (setting [7]), the “Serum GPT” value was 59 ± 7 IU/L, the Serum amylase is reported as 3958 ± 146 IU/L and the Serum lipase was determined as 200± 13 IU/L.

As for `CCOc1cc2c(N3CCC(n4c(=O)c5cc(C)ccc5n(C)c4=O)CC3)nc(N3CCOCC3)nc2cc1OCCO` [Compound 4, 3-[1-[6-ethoxy-7-(2-hidroxyethyl)oxy-2-morpholino-4-quinazolynyl]-4-piperidinyl]-1,2,3,4-tetrahydro-1,6-dimethyl-2,4-dioxoquinazoline], in series [1] (10 mg/kg oral, 7 hours after the first injection of cerulein, P-AMY assay), the “Serum Amirase” value is given as 14690 ± 922 IU/l. For the same compound, in series [1] (setting [11]), the “Serum GPT” value worked out at 67 ± 2 IU/l and the “Serum lipase” value was 195 ± 23 IU/l.

Consider `NC(=O)C1CN(CCCCC(c2ccc(F)cc2)c2ccc(F)cc2)CCN1CC(=O)Nc1c(Cl)cc(N)cc1Cl` (stereo not drawn) [Compound R75231], for which the “action of inhibiting adenosine uptake” value in the series with adenosine uptake is “have an action of inhibiting adenosine uptake”.

For `COc1cc(C(=O)OCCCN2CCCN(CCCOC(=O)c3cc(OC)c(OC)c(OC)c3)CC2)cc(OC)c1OC` [dilazep], the “action of inhibiting adenosine uptake” value in the series with adenosine uptake is given as “have an action of inhibiting adenosine uptake”.

As to `OCCN(CCO)c1nc(N2CCCCC2)c2nc(N(CCO)CCO)nc(N3CCCCC3)c2n1` [dipyridamole], the “action of inhibiting adenosine uptake” value in the series on adenosine uptake is “have an action of inhibiting adenosine uptake”.

Consider `COc1cc(C(=O)OCCCN(C)CCN(C)CCCOC(=O)c2cc(OC)c(OC)c(OC)c2)cc(OC)c1OC` [hexobendine], for which, in the series with adenosine uptake, the “action of inhibiting adenosine uptake” value was “have an action of inhibiting adenosine uptake”.

Regarding `Cc1cccc(C)c1NC(=O)CN1CCN(CCCC(c2ccc(F)cc2)c2ccc(F)cc2)CC1` [lidoflazine], the “action of inhibiting adenosine uptake” value in the series with adenosine uptake is recorded as “have an action of inhibiting adenosine uptake”.
